Reference: patent US20230038929A1, “Fused Tricyclic Heterocyclic Compounds and Uses Thereof” (Verge Analytics, Inc., priority 2019, published 2023)
Counter-ions that a name gives are not always drawn. Like-named read-outs stand apart in the source and are kept apart here.

Assays:
Assay type in all cases: biochemical
PI3Kα (p110α/p85α) = target: T1, PI3Kα (p110α/p85α) (Homo sapiens, UniProt P42336)
T1 construct: Full-length N-terminal; FLAG (N); host or cells: SF9 cells (baculovirus)

[1] = target: T2, Full length human recombinant PIKFYVE (Homo sapiens, UniProt Q9Y2I7, L932S/Q1183K/Q995L/S1033A/S696N/T998S); test: Inhibition of PIKfyve (microfluidic electrophoresis kinase assay)
T2 construct: Full length human recombinant PIKFYVE; purchased Carna Biosciences (Kobe, Japan); host or cells: baculovirus expression system (insect cells)
Method: Biological Example 1: Inhibition of PIKfyve
Full length human recombinant PIKFYVE expressed in baculovirus expression system as N-terminal GST-fusion protein (265 kDa) was obtained from Carna Biosciences (Kobe, Japan). The kinase substrate was prepared by mixing and sonicating fluorescently-labeled phosphatidylinositol 3-phosphate (PI3P) with phospho-L-serine (PS) at a 1:10 ratio in 50 mM HEPES buffer pH7.5.
The kinase reactions were assembled in 384-well plates (Greiner) in a total volume of […] as follows. Kinase protein was pre-diluted in an assay buffer comprising 25 mM HEPES, pH 7.5, 1 mM DTT, 2.5 mM MgCl2, and 2.5 mM MnCl2, and 0.005% Triton X-100, and dispensed into a 384-well plate (10 μL per well). Test compounds were serially pre-diluted in DMSO and added to the protein samples by acoustic dispensing (Labcyte Echo). The concentration of DMSO was equalized to 1% in all samples. All test compounds were tested at 12 concentrations. Apilimod was used as a reference compound and was tested in identical manner in each assay plate. Control samples (0%-inhibition, in the absence of inhibitor, DMSO only) and 100%-inhibition (in the absence of enzyme) were assembled in replicates of four and were used to calculate %-inhibition in the presence of compounds. The reactions were initiated by addition of 10 μL of 2× PI3P/PS substrate supplemented with ATP. The final concentration of enzyme was 2 nM, the final concentration of ATP was […], and the final concentration of PI3P/PS substrate was 1 μM (PI3P). The kinase reactions were allowed to proceed for 3 h at room temperature. Following incubation, the reactions were quenched by addition of […] of termination buffer (100 mM HEPES, pH 7.5, 0.01% Triton X-100, 20 mM EDTA). Terminated plates were analyzed on a microfluidic electrophoresis instrument (Caliper LabChip® 3000, Caliper Life Sciences/Perkin Elmer). The change in the relative fluorescence intensity of the PI(3)P substrate and PI(3,5)P product peaks was measured. The activity in each test sample was determined as the product to sum ratio (PSR): P/(S+P), where P is the peak height of the product, and S is the peak height of the substrate. Percent inhibition (Pinh) was determined using the following equation:
Pinh=(PSR0%inh−PSRcompound)/(PSR0%inh−P100%inh)*100
in which PSRcompound is the product/sum ratio in the presence of compound, PSR0%inh is the product/sum ratio in the absence of compound, and the PSR100%inh is the product/sum ratio in the absence of the enzyme. To determine the ICso of test compounds (50%-inhibition) the %-inh cdata (Pinh versus compound concentration) were fitted by a four-parameter sigmoid dose-response model using XLfit software (IDBS).

PI3Kδ (p110δ/p85α) = target: T3, PI3Kδ (p110δ/p85α) (Homo sapiens, UniProt O00329)
T3 construct: Full-length N-terminal GST-; GST (N); host or cells: SF9 cells (baculovirus)

PI3Kβ (p110β/p85α) = target: T4, PI3Kβ (p110β/p85α) (Homo sapiens, UniProt P42338)
T4 construct: Full-length N-terminal GST-; GST (N); host or cells: SF9 cells (baculovirus)

[2] = 0.5 nM enzyme, ATP 90 μM, 1 μM PIP2, 3 h room temperature, read-out: PI3Kα IC50
[3] = 2 nM enzyme, 1 μM PI3P, 3 h at room temperature, 12 concentrations, read-out: PIKfyve IC50
[4] = 0.25 nM enzyme, ATP 90 μM, 1 μM PIP2, 3 h room temperature, read-out: PI3Kδ IC50
[5] = 1 nM enzyme, ATP 60 μM, 1 μM PIP2, 3 h room temperature, read-out: PI3Kβ IC50

T1 sequence (P42336 whole entry): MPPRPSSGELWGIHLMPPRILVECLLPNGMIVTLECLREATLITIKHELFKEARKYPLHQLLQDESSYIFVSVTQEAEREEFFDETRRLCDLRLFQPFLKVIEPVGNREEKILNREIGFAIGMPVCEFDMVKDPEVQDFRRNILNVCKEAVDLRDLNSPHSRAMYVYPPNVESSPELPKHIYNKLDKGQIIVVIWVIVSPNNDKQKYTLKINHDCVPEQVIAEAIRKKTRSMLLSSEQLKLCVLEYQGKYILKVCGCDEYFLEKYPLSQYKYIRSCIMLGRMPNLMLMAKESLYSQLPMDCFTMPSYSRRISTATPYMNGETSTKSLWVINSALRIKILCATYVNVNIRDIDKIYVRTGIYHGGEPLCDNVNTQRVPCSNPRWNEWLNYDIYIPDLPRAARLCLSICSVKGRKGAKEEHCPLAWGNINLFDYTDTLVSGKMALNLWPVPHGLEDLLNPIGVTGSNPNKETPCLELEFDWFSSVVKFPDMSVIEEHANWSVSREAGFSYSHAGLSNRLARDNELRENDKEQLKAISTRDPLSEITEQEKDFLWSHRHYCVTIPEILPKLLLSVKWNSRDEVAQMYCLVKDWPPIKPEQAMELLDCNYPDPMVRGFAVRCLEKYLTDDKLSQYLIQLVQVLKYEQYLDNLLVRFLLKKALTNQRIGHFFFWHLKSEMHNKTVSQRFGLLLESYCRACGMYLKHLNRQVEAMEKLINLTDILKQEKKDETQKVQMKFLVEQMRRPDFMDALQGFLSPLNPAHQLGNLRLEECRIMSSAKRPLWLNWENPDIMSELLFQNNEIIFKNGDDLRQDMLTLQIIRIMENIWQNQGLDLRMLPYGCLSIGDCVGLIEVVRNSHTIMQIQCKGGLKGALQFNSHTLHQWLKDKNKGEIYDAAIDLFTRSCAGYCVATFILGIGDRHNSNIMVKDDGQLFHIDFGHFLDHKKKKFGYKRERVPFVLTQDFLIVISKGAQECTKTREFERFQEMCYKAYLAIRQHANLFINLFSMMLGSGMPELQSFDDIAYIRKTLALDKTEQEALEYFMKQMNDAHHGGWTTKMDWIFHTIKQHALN
T1 sequence (P27986 whole entry, further chain): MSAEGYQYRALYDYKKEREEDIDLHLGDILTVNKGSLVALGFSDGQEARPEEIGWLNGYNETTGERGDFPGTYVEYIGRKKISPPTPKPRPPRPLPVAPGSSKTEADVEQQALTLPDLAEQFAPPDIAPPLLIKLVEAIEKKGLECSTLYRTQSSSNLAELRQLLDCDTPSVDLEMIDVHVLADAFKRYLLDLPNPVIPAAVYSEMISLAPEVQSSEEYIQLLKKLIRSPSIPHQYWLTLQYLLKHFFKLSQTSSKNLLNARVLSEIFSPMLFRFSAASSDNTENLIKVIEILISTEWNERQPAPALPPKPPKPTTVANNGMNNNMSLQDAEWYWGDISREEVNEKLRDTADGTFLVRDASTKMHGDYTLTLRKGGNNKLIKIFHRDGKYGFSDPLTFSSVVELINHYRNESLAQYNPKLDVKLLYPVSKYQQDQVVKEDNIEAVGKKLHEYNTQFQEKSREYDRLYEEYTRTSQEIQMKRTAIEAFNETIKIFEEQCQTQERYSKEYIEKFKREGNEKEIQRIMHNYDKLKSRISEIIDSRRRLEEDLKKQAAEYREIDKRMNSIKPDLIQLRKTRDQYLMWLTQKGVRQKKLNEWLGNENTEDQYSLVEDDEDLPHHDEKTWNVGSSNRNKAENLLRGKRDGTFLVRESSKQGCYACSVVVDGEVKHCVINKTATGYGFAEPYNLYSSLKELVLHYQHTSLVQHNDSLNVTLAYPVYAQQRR
T2 sequence (Q9Y2I7 whole entry S696N/L932S/Q995L/T998S/S1033A/Q1183K): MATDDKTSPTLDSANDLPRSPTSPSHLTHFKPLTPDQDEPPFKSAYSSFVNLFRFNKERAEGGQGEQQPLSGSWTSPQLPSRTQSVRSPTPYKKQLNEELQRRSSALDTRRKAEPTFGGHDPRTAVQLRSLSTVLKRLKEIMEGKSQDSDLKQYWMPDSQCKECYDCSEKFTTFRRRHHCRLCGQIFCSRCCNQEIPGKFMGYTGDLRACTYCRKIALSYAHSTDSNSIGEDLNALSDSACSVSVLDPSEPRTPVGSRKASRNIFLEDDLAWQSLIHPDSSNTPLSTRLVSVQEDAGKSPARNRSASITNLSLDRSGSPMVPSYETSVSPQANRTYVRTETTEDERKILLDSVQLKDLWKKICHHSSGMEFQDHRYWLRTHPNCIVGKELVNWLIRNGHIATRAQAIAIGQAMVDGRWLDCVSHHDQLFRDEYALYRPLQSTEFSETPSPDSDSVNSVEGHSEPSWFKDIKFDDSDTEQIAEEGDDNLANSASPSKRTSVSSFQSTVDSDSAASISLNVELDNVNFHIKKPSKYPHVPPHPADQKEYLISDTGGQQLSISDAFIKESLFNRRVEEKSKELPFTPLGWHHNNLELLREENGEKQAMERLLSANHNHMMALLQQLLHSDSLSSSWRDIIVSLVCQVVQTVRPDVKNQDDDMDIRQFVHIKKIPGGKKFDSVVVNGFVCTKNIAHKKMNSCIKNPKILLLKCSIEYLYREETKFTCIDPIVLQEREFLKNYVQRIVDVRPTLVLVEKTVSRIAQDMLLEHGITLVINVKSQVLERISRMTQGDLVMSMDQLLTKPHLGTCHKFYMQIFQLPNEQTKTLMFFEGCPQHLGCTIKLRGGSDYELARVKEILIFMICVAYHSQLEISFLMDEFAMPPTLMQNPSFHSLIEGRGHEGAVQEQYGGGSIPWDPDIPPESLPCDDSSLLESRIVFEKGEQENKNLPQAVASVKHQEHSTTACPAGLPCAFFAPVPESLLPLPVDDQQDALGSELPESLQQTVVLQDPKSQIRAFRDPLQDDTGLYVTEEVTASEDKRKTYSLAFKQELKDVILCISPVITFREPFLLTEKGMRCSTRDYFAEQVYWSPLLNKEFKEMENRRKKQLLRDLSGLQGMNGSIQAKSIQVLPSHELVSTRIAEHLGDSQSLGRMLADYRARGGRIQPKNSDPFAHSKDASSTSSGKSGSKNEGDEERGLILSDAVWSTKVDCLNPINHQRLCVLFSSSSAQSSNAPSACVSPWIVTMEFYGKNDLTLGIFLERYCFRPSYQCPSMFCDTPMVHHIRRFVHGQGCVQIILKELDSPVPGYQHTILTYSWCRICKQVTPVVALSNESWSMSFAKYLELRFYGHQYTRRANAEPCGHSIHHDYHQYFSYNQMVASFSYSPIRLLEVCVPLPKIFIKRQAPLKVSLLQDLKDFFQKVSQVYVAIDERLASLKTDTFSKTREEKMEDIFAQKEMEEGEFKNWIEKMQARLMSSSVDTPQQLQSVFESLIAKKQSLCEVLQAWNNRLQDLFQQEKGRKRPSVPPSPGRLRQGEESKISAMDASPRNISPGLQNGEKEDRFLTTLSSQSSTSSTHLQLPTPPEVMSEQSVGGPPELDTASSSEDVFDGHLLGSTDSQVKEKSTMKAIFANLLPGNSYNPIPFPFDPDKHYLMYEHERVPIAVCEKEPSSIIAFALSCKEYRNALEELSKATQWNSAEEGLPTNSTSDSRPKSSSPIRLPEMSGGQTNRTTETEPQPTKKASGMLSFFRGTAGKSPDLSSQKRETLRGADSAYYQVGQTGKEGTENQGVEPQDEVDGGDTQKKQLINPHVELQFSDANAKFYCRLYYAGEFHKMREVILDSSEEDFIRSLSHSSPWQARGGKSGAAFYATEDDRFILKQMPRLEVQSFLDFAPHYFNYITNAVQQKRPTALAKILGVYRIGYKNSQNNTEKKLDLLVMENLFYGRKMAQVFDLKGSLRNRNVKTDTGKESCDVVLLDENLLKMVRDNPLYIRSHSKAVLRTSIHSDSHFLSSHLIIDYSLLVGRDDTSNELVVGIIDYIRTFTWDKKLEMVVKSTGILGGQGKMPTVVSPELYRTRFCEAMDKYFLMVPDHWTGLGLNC
T4 sequence (P42338 whole entry): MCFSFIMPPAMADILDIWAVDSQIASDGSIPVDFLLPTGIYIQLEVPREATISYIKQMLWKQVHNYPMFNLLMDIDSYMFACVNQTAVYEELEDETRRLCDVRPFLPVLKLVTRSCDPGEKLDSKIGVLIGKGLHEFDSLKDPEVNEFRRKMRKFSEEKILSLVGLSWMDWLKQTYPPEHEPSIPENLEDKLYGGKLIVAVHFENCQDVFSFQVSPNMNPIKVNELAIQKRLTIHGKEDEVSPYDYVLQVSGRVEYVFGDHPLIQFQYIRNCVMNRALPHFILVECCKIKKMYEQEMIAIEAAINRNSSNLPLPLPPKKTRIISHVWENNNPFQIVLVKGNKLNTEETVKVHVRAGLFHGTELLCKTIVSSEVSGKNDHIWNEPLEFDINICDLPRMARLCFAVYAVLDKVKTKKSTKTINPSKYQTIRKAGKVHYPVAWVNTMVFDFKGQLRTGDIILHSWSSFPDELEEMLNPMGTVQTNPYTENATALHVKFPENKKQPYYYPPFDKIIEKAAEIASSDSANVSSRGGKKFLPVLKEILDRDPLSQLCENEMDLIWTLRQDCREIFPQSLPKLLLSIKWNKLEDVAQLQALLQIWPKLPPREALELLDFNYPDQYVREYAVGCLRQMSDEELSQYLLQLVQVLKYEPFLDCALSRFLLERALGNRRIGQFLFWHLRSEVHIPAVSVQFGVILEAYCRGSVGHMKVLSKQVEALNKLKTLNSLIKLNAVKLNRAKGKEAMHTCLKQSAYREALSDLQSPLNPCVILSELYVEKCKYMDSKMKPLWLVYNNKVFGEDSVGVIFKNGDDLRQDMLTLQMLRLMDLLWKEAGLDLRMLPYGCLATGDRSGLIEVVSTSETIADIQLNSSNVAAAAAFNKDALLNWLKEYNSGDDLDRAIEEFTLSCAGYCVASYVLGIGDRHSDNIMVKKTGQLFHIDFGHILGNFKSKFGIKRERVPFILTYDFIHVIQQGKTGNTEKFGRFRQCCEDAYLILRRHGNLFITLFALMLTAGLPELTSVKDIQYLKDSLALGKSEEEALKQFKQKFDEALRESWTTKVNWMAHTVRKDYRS
T4 sequence (P27986 whole entry, further chain): as the sequence (P27986 whole entry, further chain) above

Row | IC50 (PI3Kα (p110α/p85α); [2]) [nM] | IC50 [1, 3] [nM] | IC50 (PI3Kδ (p110δ/p85α); [4]) [nM] | IC50 (PI3Kβ (p110β/p85α); [5]) [nM] | SMILES | other results
1 | 1640 | > 10000 | 1890 | 6540 | Cn1ccnc1Nc1nc(N2CCOCC2)c2oc3ncccc3c2n1 [Example 12, N-(1-Methyl-1H-imidazol-2-yl)-4-morpholinopyrido[3′,2′:4,5]furo[3,2-d]pyrimidin-2-amine] | 
2 |  |  |  |  | O=C(Nc1nc(N2CCOCC2)c2oc3ncccc3c2n1)Oc1ccccc1 [Example 22, phenyl(4-morpholinopyrido[3′,2′:4,5]furo[3,2-d]pyrimidin-2-yl)carbamate hydrochloride] | IC50 (PI3Kα (p110α/p85α)): 802 nM; IC50 [1]: 6400 nM; IC50 (PI3Kδ (p110δ/p85α)): 464 nM; IC50 (PI3Kβ (p110β/p85α)): 2700 nM
3 | 16 | 1280 | 7 | 315 | c1cnc2oc3c(N4CCOCC4)nc(Nc4cc(C5CCC5)n[nH]4)nc3c2c1 [Example 55, N-(3-cyclobutyl-1H-pyrazol-5-yl)-4-morpholinopyrido[3′,2′:4,5]furo[3,2-d]pyrimidin-2-amine hydrochloride] | 
4 | 158 | 988 | 37.4 | 243 | c1ccc(CCNc2nc(N3CCOCC3)c3oc4ncccc4c3n2)cc1 [Example 21, 4-morpholino-N-phenethylpyrido[3′,2′:4,5]furo[3,2-d]pyrimidin-2-amine] | 
5 | 161 | 2200 | 23.9 | 306 | Cc1cc(Nc2nc(N3CCOCC3)c3oc4ncccc4c3n2)[nH]n1 [Example 8, N-(3-Methyl-1H-pyrazol-5-yl)-4-morpholinopyrido[3′,2′:4,5]furo[3,2-d]pyrimidin-2-amine] | 
6 | 102 | 2770 | 66 | 1190 | c1ccc(Nc2nc(N3CCOCC3)c3oc4ncccc4c3n2)nc1 [Example 40, 4-morpholino-N-(pyridin-2-yl)pyrido[3′,2′:4,5]furo[3,2-d]pyrimidin-2-amine] | 
7 | 8740 | > 10000 | 1490 | 5820 | c1cnc2oc3c(N4CCOCC4)nc(Nc4ccncc4)nc3c2c1 [Example 38, 4-morpholino-N-(pyridin-4-yl)pyrido[3′,2′:4,5]furo[3,2-d]pyrimidin-2-amine] | 
8 | 77 | > 10000 | 77 | 749 | C[C@H](Nc1nc(N2CCOCC2)c2oc3ncccc3c2n1)C1CC1 [Example 36, (S)-N-(1-cyclopropylethyl)-4-morpholinopyrido[3′,2′:4,5]furo[3,2-d]pyrimidin-2-amine] | 
9 |  | 4750 |  |  | c1ccc(-c2c[nH]c(Nc3nc(N4CCOCC4)c4oc5ncccc5c4n3)n2)cc1 [Example 20, 4-morpholino-N-(4-phenyl-1H-imidazol-2-yl)pyrido[3′,2′:4,5]furo[3,2-d]pyrimidin-2-amine hydrochloride] | 
10 |  | 143 |  |  | CN(C)CCc1cnc2oc3c(N4CCOCC4)nc(Nc4cc(-c5ccccc5)n[nH]4)nc3c2c1 [Example 13, 8-(2-(Dimethylamino)ethyl)-4-morpholino-N-(3-phenyl-1H-pyrazol-5-yl)pyrido[3′,2′:4,5]furo[3,2-d]pyrimidin-2-amine] | 
11 |  | 825 |  |  | Cc1cncc(-c2cc(Nc3nc(N4CCOCC4)c4oc5ncccc5c4n3)[nH]n2)c1 [Example 32, N-(3-(5-methylpyridin-3-yl)-1H-pyrazol-5-yl)-4-morpholinopyrido[3′,2′:4,5]furo[3,2-d]pyrimidin-2-amine hydrochloride] | 
12 |  | 398 |  |  | Cc1ccc(-c2cc(Nc3nc(N4CCOCC4)c4oc5ncccc5c4n3)[nH]n2)cc1 [Example 50, 4-morpholino-N-(3-(p-tolyl)-1H-pyrazol-5-yl)pyrido[3′,2′:4,5]furo[3,2-d]pyrimidin-2-amine] | 
13 | 82 | 2180 | 60 | 370 | c1cncc(Nc2nc(N3CCOCC3)c3oc4ncccc4c3n2)c1 [Example 39, 4-morpholino-N-(pyridin-3-yl)pyrido[3′,2′:4,5]furo[3,2-d]pyrimidin-2-amine] | 
14 |  | 108 |  |  | Fc1ccccc1-c1cc(Nc2nc(N3CCOCC3)c3oc4ncccc4c3n2)[nH]n1 [Example 15, N-(3-(2-fluorophenyl)-1H-pyrazol-5-yl)-4-morpholinopyrido[3′,2′:4,5]furo[3,2-d]pyrimidin-2-amine hydrochloride] | 
15 |  | 1630 |  |  | FC(F)(F)c1cccc(-c2cc(Nc3nc(N4CCOCC4)c4oc5ncccc5c4n3)[nH]n2)c1 [Example 18, 4-morpholino-N-(3-(3-(trifluoromethyl)phenyl)-1H-pyrazol-5-yl)pyrido[3′,2′:4,5]furo[3,2-d]pyrimidin-2-amine hydrochloride] | 
16 |  | 1850 |  |  | CC(C)c1cc(Nc2nc(N3CCOCC3)c3oc4ncccc4c3n2)[nH]n1 [Example 63, N-(3-isopropyl-1H-pyrazol-5-yl)-4-morpholinopyrido[3′,2′:4,5]furo[3,2-d]pyrimidin-2-amine hydrochloride] | 
17 |  | 573 |  |  | Cc1ccnc(-c2cc(Nc3nc(N4CCOCC4)c4oc5ncccc5c4n3)[nH]n2)c1 [Example 7, N-(3-(4-Methylpyridin-2-yl)-1H-pyrazol-5-yl)-4-morpholinopyrido[3′,2′:4,5]furo[3,2-d]pyrimidin-2-amine hydrochloride] | 
18 |  | 3870 |  |  | c1ccc(-c2ccccc2Nc2nc(N3CCOCC3)c3oc4ncccc4c3n2)cc1 [Example 46, N-([1,1′-biphenyl]-2-yl)-4-morpholinopyrido[3′,2′:4,5]furo[3,2-d]pyrimidin-2-amine] | 
19 |  | 61 |  |  | c1ccc(-c2cc(Nc3nc(N4CCOCC4)c4oc5nc(OCCN6CCOCC6)ccc5c4n3)[nH]n2)cc1 [Example 24, 4-morpholino-7-(2-morpholinoethoxy)-N-(3-phenyl-1H-pyrazol-5-yl)pyrido[3′,2′:4,5]furo[3,2-d]pyrimidin-2-amine hydrochloride] | 
20 |  | 46 |  |  | CN1CCN(CCOc2ccc3c(n2)oc2c(N4CCOCC4)nc(Nc4cc(-c5ccccc5)n[nH]4)nc23)CC1 [Example 28, 7-(2-(4-methylpiperazin-1-yl)ethoxy)-4-morpholino-N-(3-phenyl-1H-pyrazol-5-yl)pyrido[3′,2′:4,5]furo[3,2-d]pyrimidin-2-amine hydrochloride] | 
21 |  | 7850 |  |  | CCc1cc(Nc2nc(N3CCOCC3)c3oc4ncccc4c3n2)[nH]n1 [Example 62, N-(3-ethyl-1H-pyrazol-5-yl)-4-morpholinopyrido[3′,2′:4,5]furo[3,2-d]pyrimidin-2-amine hydrochloride] | 
22 |  | 16 |  |  | c1ccc(-c2cc(Nc3nc(N4CCOCC4)c4oc5nc(OCCCN6CCCC6)ccc5c4n3)[nH]n2)cc1 [Example 27, 4-morpholino-N-(3-phenyl-1H-pyrazol-5-yl)-7-(3-(pyrrolidin-1-yl)propoxy)pyrido[3′,2′:4,5]furo[3,2-d]pyrimidin-2-amine hydrochloride] | 
23 |  | 17 |  |  | Oc1ccc2c(n1)oc1c(N3CCOCC3)nc(Nc3cc(-c4ccccc4)n[nH]3)nc12 [Example 5, 4-Morpholino-2-((3-phenyl-1H-pyrazol-5-yl)amino)pyrido[3′,2′:4,5]furo[3,2-d]pyrimidin-7-ol hydrochloride] | 
24 |  | 862 |  |  | Brc1cnc2oc3c(N4CCOCC4)nc(Nc4cc(-c5ccccc5)[nH]n4)nc3c2c1 [Example 51, 8-bromo-4-morpholino-N-(5-phenyl-1H-pyrazol-3-yl)pyrido[3′,2′:4,5]furo[3,2-d]pyrimidin-2-amine] | 
